Assay results reported in article PMC13194776, “Small-molecule binding and sensing with a designed protein family” (Nature Communications, 2026).

Legend:
hcy129.1 [1] = target: T1, hcy129.1; test: Fluorescence polarization cross-reactivity assay with TAMRA-labelled ligands at 5 nM (HCY, OHP, WRF) or 10 nM (SN-38) titrated with binder or albumin.; type: binding; details: read-out: KD (μM), specificity table, TAMRA-labelled targets
T1 construct: N-terminal hexahistidine tag; 4 mutations compared to the original design
Text: (§1) measured against all six targets. Raw binding traces can be found in Supplementary

roc22182.1 [2] = target: T2, roc22182.1; test: as above; type: binding; details: read-out: KD (μM), specificity table, TAMRA-labelled targets
T2 construct: N-terminal hexahistidine tag; 9 mutations compared to the original design
Text: as §1

iri807.1 [3] = target: T3, iri807.1; test: as above; type: binding; details: read-out: KD (μM), specificity table, TAMRA-labelled targets
T3 construct: N-terminal hexahistidine tag; 3 mutations compared to the original design
Text: as §1

ohp1952 = target: T4, ohp1952; test: as above; type: binding; details: read-out: KD (μM), specificity table, TAMRA-labelled targets
T4 construct: N-terminal hexahistidine tag; original design
Text: as §1

albumin = target: T5, albumin; test: as above; type: binding; details: read-out: KD (μM), specificity table, TAMRA-labelled targets
T5 construct: control protein
Text: as §1

apx1501 = target: T6, apx1501; test: Isothermal titration calorimetry at 25 °C with warfarin or apixaban, 5% DMSO in all solutions, single-site binding model.; details: read-out: KD (μM), ITC, warfarin and apixaban
T6 construct: N-terminal hexahistidine tag; original design
Description: (§2) Binding affinity of designed proteins was assessed by titrating purified protein with ligand using a microcal PEAQ ITC-Automated instrument. Both protein and ligand were prepared in identical buffers that were degassed by bottle-top filtration. […] All titrations were performed at 25 °C and 19 total injections, 0.4 μL for the first injection and 2 μL for the remaining 18. Resulting titration data were analyzed with the Malvern Panalytical ITC Analysis software, and a single-site binding model was used to fit the resulting data.

apx1493 = target: T7, apx1493; test: as above; details: read-out: KD (μM), ITC, warfarin and apixaban
T7 construct: N-terminal hexahistidine tag; original design
Description: as §2

apx1049 = target: T8, apx1049; test: as above; details: read-out: KD (μM), ITC, warfarin and apixaban
T8 construct: N-terminal hexahistidine tag; original design
Description: as §2

apx2592 = target: T9, apx2592; test: as above; details: read-out: KD (μM), ITC, warfarin and apixaban
T9 construct: N-terminal hexahistidine tag; original design
Description: as §2

hcy129.1 [4] = target: T1, hcy129.1; test: Isothermal titration calorimetry of purified designs with unlabelled ligand at 25 °C, single-site fit; 1% DMSO for cortisol, 5% DMSO for warfarin and apixaban, HEPES pH 8 for rocuronium.; type: binding; details: read-out: KD (μM) ITC
Description: Characterization of binding affinity by ITC
as §2

hcy129.1_CID = target: T10, hcy129.1_CID; test: Isothermal titration calorimetry at 25 °C with cortisol, 1% DMSO in all solutions, single-site binding model.; details: read-out: KD (μM), ITC, cortisol
T10 construct: 7 mutations compared to the original design
Description: as §2
(§3) Supplementary Table 2. Small-molecule binding characterization results
(§4) Target Design name Number of KD (μM) KD determination

hcy129.1 [5] = target: T1, hcy129.1; test: as above; details: read-out: KD (μM), ITC, cortisol
Description: as §2, §3, §4

hcy129 = target: T11, hcy129; test: as above; details: read-out: KD (μM), ITC, cortisol
T11 construct: N-terminal hexahistidine tag; original design
Description: as §2, §3, §4

hcy129_mpnn5 = target: T12, hcy129_mpnn5; test: as above; details: read-out: KD (μM), ITC, cortisol
T12 construct: ProteinMPNN surface-redesigned version; 9 mutations compared to the original design as printed
Description: as §2, §3, §4

[6] = system: hcy129.1_CID-SmBiT and miniH11_LgBiT; test: Cortisol-induced dimerization NanoBiT luminescent sensor; type: biochemical; details: sensor components 200 nM each, 2 h, DTZ 25 μM; estimated; read-out: EC50 of luminescent signal
Description: Immediately after adding the luciferase substrate diphenylterazine (DTZ) at a final concentration of 25 μΜ, the luminescent signal was measured on a Neo2 plate reader (Fig. 4H).
hcy129.1_CID (200 nM) and minibinder designed for CID (miniH11, 200 nM) was titrated with various
ligands and incubated for 2 hours, followed by addition of DTZ (25 μM) to initiate luminescence reaction.
All reactions were carried out at 50 μL final volume in HBS-EP+ buffer (Cytiva).

roc22182.1 [7] = target: T2, roc22182.1; test: Isothermal titration calorimetry at 25 °C with rocuronium in 20 mM HEPES, 50 mM NaCl, pH 8, no DMSO, single-site binding model.; details: read-out: KD (μM), ITC, rocuronium
Description: as §2, §3, §4

roc22182 = target: T13, roc22182; test: as above; details: read-out: KD (μM), ITC, rocuronium
T13 construct: N-terminal hexahistidine tag; original design
Description: as §2, §3, §4

wrf929 = target: T14, wrf929; test: Isothermal titration calorimetry at 25 °C with warfarin or apixaban, 5% DMSO in all solutions, single-site binding model.; details: read-out: KD (μM), ITC, warfarin and apixaban
T14 construct: N-terminal hexahistidine tag; original design
Description: as §2, §3, §4

wrf1071 [8] = target: T15, wrf1071; test: as above; details: read-out: KD (μM), ITC, warfarin and apixaban
T15 construct: N-terminal hexahistidine tag; original design
Description: as §2

[9] = Cross-reactivity BLI binding to ROC-Biotin; details: ROC-Biotin immobilized, binders titrated 3-fold from 25uM
Description: (§5) Biolayer interferometry (BLI) was used to estimate the binding affinity and screen for binding of the purified proteins and target small-molecules APX, and SN-38. […] 1 μM of small-molecule targets with biotin conjugated (APX-Biotin and SN-38-Biotin) were used as ligands to be immobilized to the Octet Streptavidin biosensors (Sartorius). Titration experiments were performed at 25 °C, and the kinetic response data was collected using Octet RED96 and R8 (ForteBio). The resulting responses of the analytes were corrected using the signal from the reference buffer, and further analysis was performed using the Octet Data Analysis software.
(§6) We performed an all by all binding experiment between all targets and representative binders for each target. […] Fluorescence polarization filter cube (Red1 FP, EX 530/25 nm;EM 590/35 nm, Agilent) was used to measure polarization. […] Biotinylated APX and ROC were immobilized to the Streptavidin biosensor and all binders were titrated 3-fold starting from 25uM. Other experimental conditions were kept the same as described above for characterization using FP and BLI.

[10] = Cross-reactivity FP binding to SN-38-TAMRA; details: SN-38-TAMRA 10 nM
Description: (§7) Two-fold serial dilutions of the binder protein were prepared in 24 wells with constant amounts of the target ligand, and the plate was incubated at room temperature, shaking for at least 30 min. Fluorescence polarization filter cube (Red FP, EX 530/25 nm;EM 590/35 nm, Agilent) was used to measure polarization with the plate reader (Synergy Neo2, Biotek). A binding isotherm model was used to fit the data and estimate KD.
as §6

[11] = Cross-reactivity FP binding to HCY-TAMRA; details: HCY-TAMRA 5 nM
Description: as §7, §6

[12] = Cross-reactivity BLI binding to APX-Biotin; details: APX-Biotin immobilized, binders titrated 3-fold from 25uM
Description: as §5, §6

[13] = Cross-reactivity FP binding to OHP-TAMRA; details: OHP-TAMRA 5 nM
Description: as §7, §6

iri807.2 = target: T16, iri807.2; test: Fluorescence polarization with 6 nM fluorophore-labelled OHP-AF488 or SN-38-TAMRA titrated with binder protein in PBS at room temperature, binding isotherm fit.; details: read-out: KD (μM), FP
T16 construct: N-terminal hexahistidine tag; 3 mutations compared to the original design
Description: (§8) Two-fold serial dilutions of the binder protein were prepared in 24 wells with constant amounts of the target ligand, and the plate was incubated at room temperature, shaking for at least 30 min. […] A binding isotherm model was used to fit the data and estimate KD.
as §3, §4

iri3009 = target: T17, iri3009; test: as above; details: read-out: KD (μM), FP
T17 construct: N-terminal hexahistidine tag; original design
Description: as §8, §3, §4

iri807.3 = target: T18, iri807.3; test: as above; details: read-out: KD (μM), FP
T18 construct: N-terminal hexahistidine tag; 3 mutations compared to the original design
Description: as §8, §3, §4

iri807 = target: T19, iri807; test: as above; details: read-out: KD (μM), FP
T19 construct: N-terminal hexahistidine tag; original design
Description: as §8, §3, §4

iri807.1 [14] = target: T3, iri807.1; test: as above; details: read-out: KD (μM), FP
Description: as §8, §3, §4

wrf1071 [15] = target: T15, wrf1071; test: Fluorescence polarization cross-reactivity assay with TAMRA-labelled ligands at 5 nM (HCY, OHP, WRF) or 10 nM (SN-38) titrated with binder or albumin.; type: binding; details: read-out: KD (μM), specificity table, TAMRA-labelled targets
Text: as §1

For “17α-hydroxyprogesterone-TAMRA (TAMRA conjugate) [OHP-TAMRA]”, the Kd (hcy129.1 [1]) was 0.005 µM, the Kd (roc22182.1 [2]) was 0.078 µM and the Kd (iri807.1 [3]) was 0.27 µM. The Kd (ohp1952) was 0.005 µM and the Kd (albumin) was 52 µM.
With COc1ccc(-n2nc(C(N)=O)c3c2C(=O)N(c2ccc(N4CCCCC4=O)cc2)CC3)cc1 [apixaban, apixaban (APX)] the Kd (apx1501) was 5.5 µM, the Kd (apx1493) was 9.67 µM and the Kd (apx1049) was 0.679 µM. It also gave a Kd (apx2592) of 3.16 µM.
Work on C[C@]12CCC(=O)C=C1CC[C@@H]1[C@@H]2[C@@H](O)C[C@@]2(C)[C@H]1CC[C@]2(O)C(=O)CO [cortisol, cortisol (HCY)] yielded a Kd (hcy129.1 [4]) of 0.068 µM, a Kd (hcy129.1_CID) of 0.064 µM and a Kd (hcy129.1 [5]) of 0.065 µM. For the same compound, the Kd (hcy129) was 2.3 µM and the Kd (hcy129_mpnn5) was 3.4 µM.
In the case of C[C@]12CCC(=O)C=C1CC[C@@H]1[C@@H]2[C@@H](O)C[C@@]2(C)[C@H]1CC[C@]2(O)C(=O)CO [cortisol], the EC50 [6] is reported as 72 nM.
C=CC[N+]1([C@H]2C[C@H]3[C@@H]4CC[C@H]5C[C@H](O)[C@@H](N6CCOCC6)C[C@]5(C)[C@H]4CC[C@]3(C)[C@H]2OC(C)=O)CCCC1 [rocuronium, rocuronium (ROC)] showed a Kd (roc22182.1 [7]) greater than 4 µM and a Kd (roc22182) greater than 50 µM.
Work on CC(=O)CC(c1ccccc1)c1c(O)c2ccccc2oc1=O (stereo not drawn) [warfarin, warfarin (WRF)] yielded a Kd (wrf929) of 5.9 µM and a Kd (wrf1071 [8]) of 0.83 µM.
In the case of “Albumin: control protein known for promiscuous binding to hydrophobic ligands; bovine serum albumin per b230”, the “Binding affinity KD” value [9] is reported as “No binding”, the “Binding affinity KD” value ([9]; listed as albumin) is reported as “no binding” and the “Binding affinity KD” value [10] is reported as “No binding”. For the same compound, the “Binding affinity KD” value ([10]; listed as albumin) was “no binding”, the “Binding affinity KD” value [11] was “No binding” and the “Binding affinity KD” value ([11]; listed as albumin) was “no binding”. For the same compound, the “Binding affinity KD” value [12] was “No binding”, the “Binding affinity KD” value ([12]; listed as albumin) was “no binding” and the “Binding affinity KD” value [13] was “weak binding”.
Compound “SN-38-TAMRA (fluorophore linker conjugate of SN-38)” has a Kd (iri807.2) of 0.063 µM, a Kd (iri3009) of 1.41 µM and a Kd (iri807.3) of 0.016 µM. The Kd (iri807) was 0.09 µM, the Kd (iri807.1 [14]) was 0.059 µM and the Kd (iri807.1 [3]) was 0.048 µM. It also gave a Kd (wrf1071 [15]) of 42 µM.
Compound “cortisol-TAMRA (TAMRA conjugate of cortisol) [HCY-TAMRA]” has a Kd (hcy129.1 [1]) of 0.005 µM, a Kd (roc22182.1 [2]) of 1.4 µM and a Kd (iri807.1 [3]) of 26 µM. It also gave a Kd (wrf1071 [15]) of 67 µM.
